Reference: US7202239B2, “Cyclohexylphenyl carboxamides tocolytic oxytocin receptor antagonists” (Wyeth, priority 2001, dated 2007)

Biological target: T1, human oxytocin receptor (Homo sapiens, UniProt P30559)
T1 sequence (P30559 1-389): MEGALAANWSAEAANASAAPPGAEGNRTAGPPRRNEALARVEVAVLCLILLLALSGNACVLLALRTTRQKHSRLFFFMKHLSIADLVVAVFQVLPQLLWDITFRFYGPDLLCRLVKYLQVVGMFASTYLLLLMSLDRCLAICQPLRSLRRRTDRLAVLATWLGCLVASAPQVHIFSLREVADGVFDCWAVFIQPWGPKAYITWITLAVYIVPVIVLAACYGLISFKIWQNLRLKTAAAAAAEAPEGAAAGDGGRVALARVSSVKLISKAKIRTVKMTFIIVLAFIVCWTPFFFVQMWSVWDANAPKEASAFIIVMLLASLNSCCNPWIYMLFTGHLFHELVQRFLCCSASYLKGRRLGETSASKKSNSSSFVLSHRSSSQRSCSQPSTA
Assay: Oxytocin binding in CHO cell membranes expressing human oxytocin receptors
Settings: 100 nM, [3H]oxytocin, read-out: OT % inhibition at 100 nM
Summary of the method: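 Radioligand competition binding on membranes from CHO cells stably expressing the human receptor, in 50 mM Tris-HCl pH 7.4 with BSA, MgCl2 and protease inhibitors. Test compounds added in 50% DMSO at final 0.1–1000 nM; 1000 nM unlabeled oxytocin defined non-specific binding.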

Row | inhibition at 0.1 µM [%] | Structure (SMILES)
1 | 91 | CN(CCc1ccncc1)C(=O)c1ccc2n1Cc1ccccc1N(C(=O)c1ccc(C3CCCCC3)cc1)C2 [Example 55, 10-(4-Cyclohexyl-benzoyl)-N-methyl-N-[2(4-pyridinyl)ethyl]-10,11-dihydro-5H-pyrrolo[2,1-c][1,4]benzodiazepine-3-carboxamide]
2 | 61 | O=C(c1ccc(C2CCCCC2)cc1)N1Cc2ccc(C(=O)n3ccnc3)n2Cc2ccccc21 [Example 56, 1H-Imidazol-1-yl-[10-(4-cyclohexyl-benzoyl)-10,11-dihydro-5H-pyrrolo[2,1-c][1,4]benzodiazepin-3-yl]-methanone]
3 | -4 | CN(Cc1cccnc1)C(=O)c1ccc2n1Cc1ccccc1N(C(=O)c1ccc(C3CCCCC3)cc1)C2 [Example 57, 10-(4-Cyclohexyl-benzoyl)-N-methyl-N-(3-pyridinylmethyl)-10,11-dihydro-5H-pyrrolo[2,1-c][1,4]benzodiazepine-3-carboxamide]
